Results: patent US20050209319A1, “Treatment of local pain” (XenoPort, Inc., priority 2004, published 2005)
Where two headings read alike, the source gives them in different places.

Columns and labels:
Caco-2 cell monolayers = experiment: Permeability across Caco-2 cell monolayers (cultured human epithelial cell monolayer assay); assay type: in vitro ADME; details: for Permeability coefficient (Papp) A to B: apical to basolateral; for Permeability coefficient (Papp) A to B / Permeability coefficient (Papp) B to A: donor 100-200 μM, 1 hr at 37° C, apical pH 6.5, basolateral pH 7.4; for Permeability coefficient (Papp) B to A: basolateral to apical
From the text: The following comparative test was run to determine the permeability of gabapentin and a prodrug of gabapentin across a cultured monolayer of human mucosal tissue cells (intestinal epithelial cells). Intestinal epithelial cells have an apical side (i.e., the side normally facing the gut lumen) and a basolateral side (i.e., the side normally facing the patient's internal blood carrying tissues). Both the permeability of the compounds through the monolayer of cells from apical to basolateral (A to B) and basolateral to apical (B to A) were measured.
Caco-2 cells were obtained from the ATCC (Manassas, Va.) and cultured as indicated by the supplier. Caco-2 cells were seeded into 24-well transwell plates with 3 μm filters (Corning/Costar, Acton, Mass.) at a density of 500,000 cells/well and allowed to differentiate in the transwell plates for 21 days. The test compounds were dissolved into either pH 6.5 (apical MES (4-morpholineethane sulfonic acid) buffer) or pH 7.4 (basolateral HBSS (Hanks balanced salt solution) buffer) at concentrations of 100 to 200 μM and added to the appropriate chambers. Samples were removed from the receiving chambers at various times and the permeability was measured by determining the concentration of prodrug and gabapentin (produced by esterase cleavage within the epithelial cells) by LC/MS/MS (liquid chromatography/mass spectroscopy/mass spectroscopy). Apparent permeability coefficients (“Papp”) were calculated by standard methods (B. H. Stewart et al., Pharm. Res., 1995, 12, pp. 693-699). Integrity of the monolayer was confirmed by determining the permeability of 3H-inulin. If greater than 0.5% of the inulin was detected in the receiving chamber, the transwells were discarded.

[1] = Parallel artificial membrane permeability assay (PAMPA); assay type: in vitro ADME; details: for Passive permeability in vitro across artificial membranes (in words): PAMPA assays; for Papp at 2 h, 50 µM: PAMPA
Description: Artificial membranes were prepared by adding 4 μL of 2% (w/v) dioleoylphosphatidyl-choline in dodecane onto the hydrophobic filters ([…] polyvinylidene fluoride) on the base of the wells of a 96-well donor plate (Millipore, Bedford, Mass.). Gabapentin or a gabapentin prodrug (150 μL of 50 μM solution in 0.1 M Tris buffer, pH 6.5 or pH 7.4) was added to the donor wells in triplicate. The gabapentin prodrug used was 1-{[(α-isobutanoyloxyethoxy)carbonyl]-aminomethyl}-1-cyclohexane acetic acid. The plate was placed onto a 96-well acceptor plate (Agilent, Wilmington, Del.), in which each well contained 400 μL 0.1 M Tris, pH 7.4. Following incubation for two hours at room temperature, samples of the donor and receiver chambers were removed for analysis by LC/MS/MS. The permeability coefficient through the artificial membrane (“Pam”) was calculated using standard methods (Sugano et al., Int. J. Pharm., 2001, 228, pp. 181-188). The artificial membrane permeability coefficient, Pam, of 1-{[(α-isobutanoyloxyethoxy)carbonyl]-aminomethyl}-1-cyclohexane acetic acid was about 5 to 30 times higher than the Pam for gabapentin at the two test pH values as shown in Table 2.

[2] = injection into hindpaw of rats pretreated with 2% formalin injection; cited from earlier work

SMILES	Passive permeability in vitro through Caco-2 cell monolayers (in words) (Caco-2 cell monolayers)	Permeability coefficient (Papp) A to B (Caco-2 cell monolayers)	Permeability coefficient (Papp) B to A (Caco-2 cell monolayers)	Papp compared with the Papp for gabapentin (Caco-2 cell monolayers; from the basolateral to the apical side)	Passive permeability in vitro across artificial membranes (in words) [1]	Permeability coefficient (Pam) pH 6.5 ([1]; donor chamber pH 6.5, 50 μM, two hours at room temperature, acceptor pH 7.4)	Permeability coefficient (Pam) pH 7.4 ([1]; donor chamber pH 7.4, 50 μM, two hours at room temperature, acceptor pH 7.4)	Passive permeability in vitro through Caco-2 cell monolayers (in words) (Caco-2 cell monolayers; Caco-2)	Papp at 2 h, 50 µM ([1]; donor chamber pH 6.5, 50 μM, two hours at room temperature, acceptor pH 7.4, read-out: Permeability coefficient (Pam) pH 6.5) [×10⁻⁶ cm/s]	Papp at 2 h, 50 µM ([1]; donor chamber pH 7.4, 50 μM, two hours at room temperature, acceptor pH 7.4, read-out: Permeability coefficient (Pam) pH 7.4) [×10⁻⁶ cm/s]	Effect on nociceptive behavior [2]
CC(OC(=O)NCC1(CC(=O)O)CCCCC1)OC(=O)C(C)C (stereo not drawn) [1-{[(α-isobutanoyloxyethoxy)carbonyl]-aminomethyl}-1-cyclohexane acetic acid]	relatively high passive permeability	31 (cm/sec) × 10^6	5.7 (cm/sec) × 10^6	significantly higher	relatively high passive permeability	0.65 (cm/sec) × 10^6	0.095 (cm/sec) × 10^6	–	–	–	–
NCC1(CC(=O)O)CCCCC1 [Gabapentin]	–	3.2 (cm/sec) × 10^6	3.4 (cm/sec) × 10^6	–	limited passive permeability	–	–	limited passive permeability	0.02	0.026	significantly reduced nociceptive behavior
